{"source": "patent US20240140999A1", "about": "“STABILIZED PEPTIDE-MEDIATED TARGETED PROTEIN DEGRADATION” (Dana-Farber Cancer Institute, Inc., priority 2017, published 2024)", "key": {"Cop1 [1]": {"molecular_target": "T1, Cop1 (Homo sapiens, UniProt Q8NHY2)", "T1 sequence (Q8NHY2 whole entry)": "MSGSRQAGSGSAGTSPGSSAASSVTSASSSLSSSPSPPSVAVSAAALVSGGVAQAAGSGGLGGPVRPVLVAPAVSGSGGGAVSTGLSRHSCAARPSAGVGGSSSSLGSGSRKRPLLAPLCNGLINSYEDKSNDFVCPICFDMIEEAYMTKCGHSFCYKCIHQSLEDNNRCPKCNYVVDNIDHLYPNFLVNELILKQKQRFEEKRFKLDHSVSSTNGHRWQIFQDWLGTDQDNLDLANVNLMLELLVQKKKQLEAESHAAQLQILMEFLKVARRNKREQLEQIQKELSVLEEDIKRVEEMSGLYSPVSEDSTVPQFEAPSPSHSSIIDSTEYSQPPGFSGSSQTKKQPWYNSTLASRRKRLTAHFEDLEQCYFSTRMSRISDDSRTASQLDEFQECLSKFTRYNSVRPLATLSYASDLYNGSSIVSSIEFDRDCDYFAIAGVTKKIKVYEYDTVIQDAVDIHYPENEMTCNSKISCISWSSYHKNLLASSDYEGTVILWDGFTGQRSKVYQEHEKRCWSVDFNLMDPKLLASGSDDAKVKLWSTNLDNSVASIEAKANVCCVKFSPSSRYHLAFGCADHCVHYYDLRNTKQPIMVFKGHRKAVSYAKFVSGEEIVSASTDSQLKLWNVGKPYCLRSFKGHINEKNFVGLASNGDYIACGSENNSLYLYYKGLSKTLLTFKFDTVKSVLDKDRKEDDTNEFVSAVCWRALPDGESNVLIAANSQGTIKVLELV", "details": "reported value (Uljon et al.); read-out: binding affinity for Cop1; cited from earlier work"}, "MCL-1": {"molecular_target": "T2, MCL-1 (Homo sapiens, UniProt Q07820)", "T2 construct": "monitoring of cellular MCL-1 levels by western blot of lysates; endogenous in cells; host or cells: A375P melanoma cells", "experiment": "MCL-1 levels by western blot in A375P melanoma cells", "format": "cell-based", "details": "10 μM, western blot over time", "description": "BIM-C-terminal degron is #IWIAQELRXIGDXFNAYYARR% (SEQ ID NO: 134; #=N-term Ac; %=Lys-degron (see FIG. 3 for the structure of Lys-degron)).\nA stapled peptide helix-degron chimeric peptide (FIG. 1) modeled after the pro-apoptotic BIM BH3 domain with an incorporated degron (e.g., Lys-degron, FIG. 2-4) was applied to A375P melanoma cells that express such anti-apoptotic BCL-2 family proteins as MCL-1, which promotes cancer cell survival and chemoresistance."}, "Cop1 [2]": {"molecular_target": "T1, Cop1", "experiment": "Cop1-mediated degradation of Myc-tagged MDM2 p60 chimera constructs expressed in 293T cells", "format": "cell-based", "set-up": "Cop1-expressing human embryonic kidney 293T cells; endogenous in cells; host or cells: 293T (human embryonic kidney)", "details": "native GFDVPD replaced by the sequence; Cop1-expressing 293T cells", "description": "The native peptide sequence GFDVPD (SEQ ID NO: 26) within MDM2 is replaced by the sequences indicated (lane 3: SEQ ID NO:27; lane 4: SEQ ID NO:28; lane 5: SEQ ID NO:29; and lane 6: SEQ ID NO:30). […] Lower panel: Cop1 loading control.\n(§1) (1) Direct genetic modification: Replacement of natural protein residues in structurally disordered regions with derivatives of the sequence DQIVPEY (SEQ ID NO: 25) can cause the chimera proteins to be degraded by Cop1. For example, replacement of the C-terminal sequence GFDVPD (SEQ ID NO: 26) of the p60 isoform of the protein HDM2 with the Trib1-derived sequence DQIVPD (SEQ ID NO: 30) causes Cop1-mediated degradation of the mutant protein when exogenously expressed in Cop1-expressing human embryonic kidney 293T cells (FIG. 13)."}, "Cop1 [3]": {"molecular_target": "T1, Cop1", "experiment": "Co-immunoprecipitation of Myc-tagged MDM2 p60 mutant constructs with Cop1 from 293T cells", "format": "cell-based", "set-up": "Cop1-expressing human embryonic kidney 293T cells; endogenous in cells; host or cells: 293T (human embryonic kidney)", "description": "Sequences: GFDVPD (SEQ ID NO:26); GFDAAD (SEQ ID NO:27); GNDVPD (SEQ ID NO:28); PQTVPD (SEQ ID NO:29); and DQIVPD (SEQ ID NO:30).\nas §1"}, "SJSA-1 cells": {"tested_on": "SJSA-1 cells", "experiment": "Cell viability of SJSA-1 cells (Cell Titer Glo)", "format": "cell-based", "details": "thalidomide degron chimeras with distinct linkers, FIG. 12", "method": "Certain compositions bearing different linkers show no cellular activity (right). Linker1-5 are as depicted in FIG. 5.\nA stapled peptide degron chimera modeled after the transactivation domain helix of p53 (ATSP-7041) coupled to a thalidomide degron was applied to cultured cancer cells (SJSA-1, SJSA-X) and MDM2 protein levels were monitored by western blot and compared to that in cells treated with ATSP-7041 alone. The experiment was repeated and cell viability was measured by Cell Titer Glo assay. […] In addition, each of the stapled peptide degron chimeras impaired cancer cell viability in a dose-responsive fashion (FIG. 12). The composition of the linker influenced the presence (FIG. 12, left) or absence (FIG. 12, right) of biological activity."}}, "note": "Entries after “also recorded” stand apart in the source; their conditions may differ."}
{"substance": "DQIVPEY", "values": [{"measurement": "Kd", "setting": "Cop1 [1]", "result": "0.25 ± 0.04", "unit": "µM"}]}
{"substance": "#IWIAQELRXIGDXFNAYYARR% [BIM-C-terminal degron, stapled BIM BH3 peptide; #=N-term Ac; %=Lys-degron (thalidomide on C-terminal lysine side chain)]", "values": [{"measurement": "cellular MCL-1 protein level", "setting": "MCL-1", "result": "time-dependent decrease in MCL-1 protein; also recorded: induces the degradation of MCL-1"}]}
{"substance": "DQIVPD", "values": [{"measurement": "Cop1-mediated degradation of the MDM2 p60 chimera protein", "setting": "Cop1 [2]", "result": "causes destruction of the p60 chimera protein by the Cop1 protein"}, {"measurement": "binding of the Myc-tagged MDM2 p60 mutant construct to Cop1", "setting": "Cop1 [3]", "result": "direct binding"}]}
{"substance": "LTF8EYWAQLX%AA [5-L5]", "values": [{"measurement": "cell viability / cytotoxic activity", "setting": "SJSA-1 cells", "result": "most potent cytotoxic activity"}]}
